Test results: patent US20060233861A1, “Modulation of atp production or content in the hypothalamus” (priority 2003, published 2006)

Legend:
[1] = system: rats (food intake); test: Effect of ICV or i.p. administration of test compounds on rat food intake
[2] = system: Na/K ATPase; test: 86-Rubidium uptake in cultures of fetal rat hypothalamic neurons; type: cell-based; conditions: for effect on ouabain inhibition of 86-Rb uptake: preincubated 10 min, then ouabain 1000 nM
[3] = system: ATP-sensitive K+ channels; test: Electrophysiological recordings in hypothalamic slices (glucose sensitive neurons); type: cell-based; conditions: hypothalamic slice recordings
[4] = system: hypothalamus (ATP content); test: ATP content in hypothalamic slice punches after ICV injection in rats; type: in vivo, rat; conditions: rats on normal (ad lib) diet, ICV 40 nmoles, punches 24 hours later, P<0.05
Protocol: In several experiments, to determine subsequent effects on food intake, hypothalamic Na/K ATPase activity or ATP content, the animals were administered the test compounds by ICV injection. Animals were anesthetized with sodium barbiturate (6 mg/100 g BW). Under stereotaxic fixation (David Kopf), with aseptic technique, a 25 ul Hamilton micro syringe (Reno, Nev.) needle tip was inserted according to the published references: 2 mm lateral to the middline at the bregma; −4.3 mm to the bregma; 5.5 mm deep to the dura; −1.3 mm with the shaft inclined medially at 13° […]. to the vertical. […] All injections were calculated and expressed in absolute amount, i.e. nmoles. […]
Following extraction, the content of ATP in these slice punches was measured by the Enliten™ ATP Assay system (see below). […]
As described above, hypothalamic tissues after removal or removal/incubation were transferred to 1.5 ml Eppendorf tubes with 50 μl TCA (5%) and immediately homogenated with a plastic homogenizer. […] ATP was measured according to the kit protocol. […] Light photons were measured by a luminometer and were compared with an ATP standard curve to calculate ATP concentration. […] ATP content is expressed as moles per mg protein for tissue samples, moles per 5 mg tissue for section punches, and as moles per neuron culture well; expressed in appropriate quantitative units for each experiment. […]

[5] = system: hypothalamus (ATP content); conditions: rats treated with supraphysiological doses of triiodothyronine (T3), ICV; cited from earlier work
[6] = system: Na/K ATPase; test: Competitive binding / Na/K ATPase activity in membrane concentrates from brain, kidney and gut; type: biochemical
[7] = system: ouabain receptors; test: 3H-ouabain binding in cultured fetal rat hypothalamic neurons (whole cell); conditions: whole cell hypothalamic culture
Source text: This binding was unaffected and in some experiments appeared to actually increase during exposure to Compound (1). Compound (2) was not tested.

[8] = system: fetal rat hypothalamic neurons; test: ATP content in cultured fetal hypothalamic neurons (Enliten ATP Assay); type: cell-based; conditions: for increase of ATP content: 30 minute incubation in vitro
[9] = system: Na/K ATPase; test: 86-Rubidium uptake into incubated rat hypothalamic slice punches; type: cell-based; conditions: for effect of agent alone on 86Rb uptake: Compound (1) at up to 5000 nM
Protocol: The whole brain was removed from the skull and inserted into a Precision Brain Slicer (RMB 3000C, Braintree Scientific INC.). As scaled from the rear, a brain slice was removed between the 8 and 10 scale (about 2 mm). The medial-basal hypothalamus was punched using a round mouth #18 1 mm diameter needle with attached syringe. The tissue included most of arcuate nucleus of the hypothalamus and a small part of nucleus paremamillaris ventralis. The tissue was pushed into 0.5 ml DMEM medium in a 24 well cell culture plate. Following preincubation at 37° C., in air/5% CO2 for 30 min., concentrations of test Compound were added for an additional 30 min. Finally, 86-rubidium- (^86Rb) 1 μCi was added to each well for 20 minutes at room temperature. The tissue was then transferred to tubes with a protein dialysis solution to dissolve protein. Five (5) ml scintillation liquid was added to each tube and the photoemissions determined in a β-counter (Beckman).

[10] = system: rats (food intake); conditions: ICV, depending on dose

SMILES	effect on subsequent 24 hour food intake ([1]; ICV, approximately 40 nmoles in DMSO)	effect on ouabain inhibition of 86-Rb uptake ([2]; hypothalamic neuron culture)	effect on ATP-sensitive K+ channels [3]	effect on food intake after i.p. injection ([1]; 20 nmoles administered once i.p. (data not shown))	effect on food intake at lowest dose ([1]; ICV, 0.04 nmoles)	effect of agent alone on 86-Rb uptake ([2]; hypothalamic neuron culture)	concentrations at which reduction of ouabain inhibition of 86-Rb uptake was observed ([2]; hypothalamic neuron culture, ouabain 1000 nM) [nM]	effect on hypothalamic ATP content [4]	effect on apparent hypothalamic ATP deficit [5]	binding to / inhibition of activity of membrane extracts enriched with Na/K ATPase [6]	effect on tritiated (3H) ouabain binding [7]	increase of ATP content ([8]; 500 nM alone)	increase of ATP content ([8]; 500 nM in combination with ouabain)	effect of agent alone on 86Rb uptake [9]	effect on the inhibitory effect of ouabain on 86Rb uptake ([9]; with ouabain)	duration of effect on food intake [10] [h]	behavioural effect observed ([1]; ICV, approximately 8 nmoles in 4 μl DMSO)	effect on food intake ([1]; ICV, approximately 8 nmoles in 4 μl DMSO (results not shown))	IC50 ([2]; fetal rat hypothalamic neuron culture, 10 to 100,000 nM tested, approximate, read-out: IC50 for 86Rb uptake) [nM]	effect on ATP content ([8]; hypothalamic culture, ouabain alone)
C/C=C(\C)C(=O)O[C@@H]1CC2C(CC=C3C[C@@H](O)CC[C@@]32C)[C@@]2(O)CC[C@H](C(C)=O)[C@@]12C (stereo partly drawn) [Compound (2)]	altered subsequent 24 hour food intake	had no effect	–	–	–	–	–	–	–	–	–	–	–	–	–	–	–	–	–	–
C/C=C(\C)C(=O)O[C@@H]1CC2C(CC=C3C[C@@H](OC4CC(OC)C(OC5CC(OC)C(OC6OC(C)C(O)C(OC)C6O)C(C)O5)C(C)O4)CC[C@@]32C)[C@@]2(O)CC[C@H](C(C)=O)[C@@]12C (stereo partly drawn) [Compound (1), tri-rhabinoside, 14-0H, 12-tigloyl pregnane steroidal glycoside]	–	significantly reduced the inhibition	activate (close)	did not significantly reduce food intake	significant but relatively minor effect	had no effect	5 to 500	increased hypothalamic ATP content	partially reversed	does not bind to or inhibit activity	unaffected	up to 2 fold	up to 2 fold	had no effect	almost completely blocked	24 to 48	–	–	–	–
C[C@@H]1O[C@@H](O[C@H]2C[C@@H](O)[C@]3(CO)[C@H]4[C@H](O)C[C@]5(C)[C@@H](C6=CC(=O)OC6)CC[C@]5(O)[C@@H]4CC[C@]3(O)C2)[C@H](O)[C@H](O)[C@H]1O [Ouabain, ouabain, reference compound]	–	–	–	–	–	[…]	–	–	–	–	specifically inhibited	–	–	inhibited	–	–	motor hyperactivity	no consistent effect on food intake	[…]	had no effect or slightly reduced ATP content
